Earlier results in patent publication US12478681B2, “Non-activated, amorphous, pH neutral, two-part bedside-ready clay delivery system that treats pathogen infections in humans and animals” (priority 2019, dated 2025).

Q: What does the source list for elemental iron?
A: Oral dose that can cause severe toxicity, morbidity and mortality: > 60 mg/kg; Oral dose that can have toxicity symptoms: 20 to 60 mg/kg; Oral dose that is non-toxic: < 20 mg/kg
